Read-outs that look alike come from different tables or passages of the source.
Tests used:
[1] = biological target: T1, full-length beta-Catenin (Uniprot ID P35222) (Homo sapiens, UniProt P35222); assay: Fluorescence polarization IC50 (beta-catenin / 5FAM-TCF4 10-53 competition); format: binding
T1 construct: 10 nM full-length beta-Catenin (Uniprot ID P35222)
T1 sequence (P35222 1-781): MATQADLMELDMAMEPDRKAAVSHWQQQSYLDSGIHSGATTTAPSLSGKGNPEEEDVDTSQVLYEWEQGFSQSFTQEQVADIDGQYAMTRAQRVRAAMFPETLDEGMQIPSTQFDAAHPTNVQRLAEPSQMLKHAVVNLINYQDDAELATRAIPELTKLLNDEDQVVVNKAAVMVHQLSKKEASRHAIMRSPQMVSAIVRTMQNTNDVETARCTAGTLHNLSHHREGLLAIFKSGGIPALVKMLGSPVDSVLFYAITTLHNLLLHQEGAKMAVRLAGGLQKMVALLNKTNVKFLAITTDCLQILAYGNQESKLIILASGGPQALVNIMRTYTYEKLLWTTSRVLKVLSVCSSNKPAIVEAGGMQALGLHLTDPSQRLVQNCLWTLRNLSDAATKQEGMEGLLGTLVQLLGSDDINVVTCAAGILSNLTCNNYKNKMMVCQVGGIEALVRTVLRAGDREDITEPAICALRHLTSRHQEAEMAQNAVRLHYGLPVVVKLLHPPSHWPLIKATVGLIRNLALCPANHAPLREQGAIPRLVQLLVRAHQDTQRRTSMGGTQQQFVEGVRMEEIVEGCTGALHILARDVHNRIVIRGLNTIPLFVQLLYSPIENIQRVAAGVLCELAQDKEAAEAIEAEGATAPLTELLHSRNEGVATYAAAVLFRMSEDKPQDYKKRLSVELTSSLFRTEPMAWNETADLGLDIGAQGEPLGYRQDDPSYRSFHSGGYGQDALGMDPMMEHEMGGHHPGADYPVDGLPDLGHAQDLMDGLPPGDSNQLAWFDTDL

[2] = biological target: T2, beta-catenin/TCF4 engagement (Homo sapiens, UniProt P35222); assay: Nano-BRET target engagement assay (B-cat-Halo & TCF4-Luc in HEK293 cells); format: cell-based
T2 construct: expressed in transfected cells; host or cells: HEK293
T2 sequence (P35222 1-781): T1 sequence (P35222 1-781)

CHI Log D procedure = format: physicochemical; details: for CHI Log D: pH 7.4; for chromatographic logD: pH 7.4, CHI Log D
[3] = fluorescence polarization, beta-catenin, read-out: FP EC50
[4] = absolute IC50, read-out: NanoBRET Abs IC50

| SMILES | IC50 [1, 3] [nM] | IC50 ([1]; read-out: beta-Catenin FP IC50) [nM] | IC50 ([2]; read-out: NanoBRET Abs IC50) [nM] | CHI Log D (CHI Log D procedure) | IC50 ([1]; read-out: FP EC50) [nM] | IC50 [2, 4] [nM] | chromatographic logD (CHI Log D procedure) | IC50 ([2]; read-out: NanoBRET IC50) [nM] | inhibition at 10 µM ([2]; HEK293, 10 uM, read-out: NanoBRET % inh @ 10 uM) [%] |
| --- | --- | --- | --- | --- | --- | --- | --- | --- | --- |
| CC(=O)N1CCC[C@]12CC=CCCCC1(CCCC=CCCCCOC(=O)N3CC[C@@](C(=O)N[C@@H](Cc4ccsc4)C(=O)N[C@@H](Cc4csc5ccccc45)C(=O)N[C@@H](CCC(N)=O)C(=O)N[C@@H](C)C(N)=O)(C3)NC(=O)[C@H](CC(N)=O)NC(=O)[C@H](Cc3ccccc3)NC(=O)[C@H](C)NC(=O)[C@H](C)NC(=O)[C@H](CC(=O)O)NC(=O)[C@H](CC(=O)O)NC1=O)NC(=O)[C@H](CC(C)(C)C)NC(=O)[C@H](CC(=O)O)NC2=O (stereo partly drawn) [I-825, Ac-PL3-Asp-Npg-B5-Asp-Asp-Ala-Ala-Phe-Asn-PyrS3-3Thi-BztA-Gln-Ala-NH2] | 15 | 15 | 27500 | 2.028 | – | – | – | – | – |
| CC(=O)N1CCC[C@]12CC=CCCCC1(CCCC=CCCCCOC(=O)N3CC[C@@](C(=O)N[C@@H](Cc4ccsc4)C(=O)N[C@@H](Cc4csc5ccccc45)C(=O)N[C@@H](CCC(N)=O)C(N)=O)(C3)NC(=O)[C@H](CC(N)=O)NC(=O)[C@H](Cc3ccccc3)NC(=O)[C@H](C)NC(=O)[C@H](C)NC(=O)[C@H](CC(=O)O)NC(=O)[C@H](CC(=O)O)NC1=O)NC(=O)[C@H](CC(C)(C)C)NC(=O)[C@H](CC(=O)O)NC2=O (stereo partly drawn) [I-768, Ac-PL3-Asp-Npg-B5-Asp-Asp-Ala-Ala-Phe-Asn-PyrS3-3Thi-BztA-Gln-NH2] | – | 9 | 31400 | 2.043 | 9 | – | – | – | – |
| CC(=O)N1CCC[C@]12CC=CCCCC1(CCCC=CCCCOC(=O)N3CC[C@@](C(=O)N[C@@H](Cc4ccsc4)C(=O)N[C@@H](Cc4csc5ccccc45)C(=O)N[C@@H](Cc4c[nH]cn4)C(N)=O)(C3)NC(=O)[C@H](CCC(N)=O)NC(=O)[C@H](Cc3ccccc3)NC(=O)[C@H](C)NC(=O)[C@H](C)NC(=O)[C@H](CC(=O)O)NC(=O)[C@H](CC(=O)O)NC1=O)NC(=O)[C@H](CC(C)(C)C)NC(=O)[C@H](CC(=O)O)NC2=O (stereo partly drawn) [I-772, Ac-PL3-Asp-Npg-B5-Asp-Asp-Ala-Ala-Phe-Gln-PyrS2-3Thi-BztA-His-NH2] | – | 7 | > 20000 | 2.069 | 7 | – | – | – | – |
| CC(=O)N1CCC[C@]12CC=CCCCC1(CCCC=CCCCCOC(=O)N3CC[C@@](C(=O)N[C@@H](Cc4ccsc4)C(=O)N[C@@H](Cc4csc5ccccc45)C(=O)N[C@@H](CCC(N)=O)C(=O)N[C@H](C)C(N)=O)(C3)NC(=O)[C@H](CC(N)=O)NC(=O)[C@H](Cc3ccccc3)NC(=O)[C@H](C)NC(=O)[C@H](C)NC(=O)[C@H](CC(=O)O)NC(=O)[C@H](CC(=O)O)NC1=O)NC(=O)[C@H](CC(C)(C)C)NC(=O)[C@H](CC(=O)O)NC2=O (stereo partly drawn) [I-830, Ac-PL3-Asp-Npg-B5-Asp-Asp-Ala-Ala-Phe-Asn-PyrS3-3Thi-BztA-Gln-dAla-NH2] | 15 | 15 | 38500 | 2.042 | – | – | – | – | – |
| CC(=O)N1CCC[C@]12CC=CCCCC1(CCCC=CCCCOC(=O)N3CC[C@@](C(=O)N[C@@H](Cc4ccsc4)C(=O)N[C@@H](Cc4csc5ccccc45)C(=O)N[C@@H](CCC(N)=O)C(N)=O)(C3)NC(=O)[C@H](CC(C)C)NC(=O)[C@H](Cc3ccccc3)NC(=O)[C@H](C)NC(=O)[C@H](C)NC(=O)[C@H](Cc3ccc(C(=O)O)cc3)NC(=O)[C@H](CC(=O)O)NC1=O)NC(=O)[C@H](CC(C)(C)C)NC(=O)[C@H](CC(=O)O)NC2=O (stereo partly drawn) [I-851, Ac-PL3-Asp-Npg-B5-Asp-4COOHF-Ala-Ala-Phe-Leu-PyrS2-3Thi-BztA-Gln-NH2] | – | 16 | – | – | – | 7600 | 2.15 | – | – |
| CC(=O)N1CCC[C@]12CC=CCCCC1(CCCC=CCCCOC(=O)N3CC[C@@](C(=O)N[C@@H](Cc4ccsc4)C(=O)N[C@@H](Cc4csc5ccccc45)C(=O)N[C@@H](CCC(N)=O)C(=O)NCCCCCCN)(C3)NC(=O)[C@H](CC(N)=O)NC(=O)[C@H](Cc3ccccc3)NC(=O)[C@H](C)NC(=O)[C@H](C)NC(=O)[C@H](CC(=O)O)NC(=O)[C@H](CC(=O)O)NC1=O)NC(=O)[C@H](CC(C)(C)C)NC(=O)[C@H](CC(=O)O)NC2=O (stereo partly drawn) [I-881, Ac-PL3-Asp-Npg-B5-Asp-Asp-Ala-Ala-Phe-Asn-PyrS2-3Thi-BztA-Gln-6AmHex] | 10 | 10 | 23800 | −0.008 | – | – | – | – | – |
| CC(=O)N1CCC[C@]12CC=CCCCC1(CCCC=CCCCOC(=O)N3CC[C@@](C(=O)N[C@@H](Cc4ccsc4)C(=O)N[C@@H](Cc4csc5ccccc45)C(N)=O)(C3)NC(=O)[C@H](CC(N)=O)NC(=O)[C@H](Cc3ccccc3)NC(=O)[C@H](C)NC(=O)[C@H](C)NC(=O)[C@H]([C@@H](C)O)NC(=O)[C@H](CC(=O)O)NC1=O)NC(=O)[C@H](CC(C)(C)C)NC(=O)[C@H](CC(=O)O)NC2=O (stereo partly drawn) [I-859, Ac-PL3-Asp-Npg-B5-Asp-Thr-Ala-Ala-Phe-Asn-PyrS2-3Thi-BztA-NH2] | 36 | 36 | > 20000 | 2.711 | – | – | – | – | – |
| CC(=O)N1CCC[C@]12CC=CCCCC1(CCCC=CCCCOC(=O)N3CC[C@@](C(=O)N[C@@H](Cc4ccsc4)C(=O)N[C@@H](Cc4csc5ccccc45)C(=O)N[C@@H](CCC(N)=O)C(N)=O)(C3)NC(=O)[C@H](CC(C)C)NC(=O)[C@H](Cc3ccccc3)NC(=O)[C@H](C)NC(=O)[C@H](C)NC(=O)[C@H](Cc3ccccc3C(=O)O)NC(=O)[C@H](CC(=O)O)NC1=O)NC(=O)[C@H](CC(C)(C)C)NC(=O)[C@H](CC(=O)O)NC2=O (stereo partly drawn) [I-854, Ac-PL3-Asp-Npg-B5-Asp-2COOHF-Ala-Ala-Phe-Leu-PyrS2-3Thi-BztA-Gln-NH2] | – | 8 | – | – | – | 3600 | 2.48 | 4600 | – |
| CC(=O)N1CCC[C@]12CC=CCCCC1(CCCC=CCCCOC(=O)N3CC[C@@](C(=O)N[C@@H](Cc4ccsc4)C(=O)N[C@@H](Cc4c[nH]c5ccc(F)cc45)C(=O)N[C@@H](Cc4c[nH]cn4)C(N)=O)(C3)NC(=O)[C@H](CC(N)=O)NC(=O)[C@H](Cc3ccccc3)NC(=O)[C@H](C)NC(=O)[C@H](C)NC(=O)[C@H](CC(=O)O)NC(=O)[C@H](CC(=O)O)NC1=O)NC(=O)[C@H](CC(C)(C)C)NC(=O)[C@H](CC(=O)O)NC2=O (stereo partly drawn) [I-800, Ac-PL3-Asp-Npg-B5-Asp-Asp-Ala-Ala-Phe-Asn-PyrS2-3Thi-5FW-His-NH2] | – | 79 | – | – | – | – | 2 | – | 8.1 |
| CC(=O)N1CCC[C@]12CC=CCCCC1(CCCC=CCCCOC(=O)N3CC[C@@](C(=O)N[C@@H](Cc4ccsc4)C(=O)N[C@@H](Cc4csc5ccccc45)C(=O)N[C@@H](CCC(N)=O)C(N)=O)(C3)NC(=O)[C@H](Cc3ccccc3)NC(=O)[C@H](Cc3ccccc3)NC(=O)[C@H](C)NC(=O)[C@H](C)NC(=O)[C@H](Cc3ccc(C(=O)O)cc3)NC(=O)[C@H](CC(=O)O)NC1=O)NC(=O)[C@H](CC(C)(C)C)NC(=O)[C@H](CC(=O)O)NC2=O (stereo partly drawn) [I-850, Ac-PL3-Asp-Npg-B5-Asp-4COOHF-Ala-Ala-Phe-Phe-PyrS2-3Thi-BztA-Gln-NH2] | – | 26 | – | – | – | 16400 | 2.26 | – | – |
| CC(=O)N1CCC[C@]12CC=CCCCC1(CCCC=CCCCOC(=O)N3CC[C@@](C(=O)N[C@@H](Cc4ccsc4)C(=O)N[C@@H](Cc4csc5ccccc45)C(=O)N[C@@H](CCC(N)=O)C(=O)NCCCCCCN)(C3)NC(=O)[C@H](CC(N)=O)NC(=O)[C@H](Cc3ccccc3)NC(=O)[C@H](C)NC(=O)[C@H](C)NC(=O)[C@H](CC(=O)O)NC(=O)[C@H](CC(=O)O)NC1=O)NC(=O)[C@H](CC(C)(C)C)NC(=O)[C@H](CC(=O)O)NC2=O (stereo partly drawn) [I-882, Ac-PL3-Asp-Npg-B5-Asp-Asp-Ala-Ala-Phe-Asn-PyrS2-3Thi-BztA-Gln-6AmHex] | 22 | 22 | 41400 | 2.028 | – | – | – | 22500 | – |
